IC50 data for 15 compounds are collected here from US20230357179A1, “RAF KINASE INHIBITORS AND METHODS OF USE THEREOF” (Deciphera Pharmaceuticals, LLC, priority 2021, published 2023).

Structures are written as SMILES. Some results are limits rather than exact numbers.

In one assay the target is T1, A-Raf kinase (Homo sapiens, UniProt P10398, Y301D/Y302D).
T1 construct: purchased Sigma
In words: Biochemical assay for A-Raf.1 (coupled pyruvate kinase/lactate dehydrogenase). The conditions noted are these: read-out: ARAF.1 IC50. Put shortly:
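IC50 values came from four-parameter sigmoidal fits of percent inhibition, using rates over the 4 to 5 h window of continuous A340 readings (6 h, 30° C). The coupled PK/LDH system tracked NADH oxidation during 5.55 nM A-Raf activity on 30.1 nM MEK at 1 mM ATP, buffer pH 7.5.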

The subject of the next assay is H2405 cells. In words: H2405 cell proliferation assay (1), resazurin, 96-well. It counts as cell-based. The following applies: Homo sapiens, NCI-H2405, inhibition of cell proliferation. Put shortly: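 This is a resazurin viability readout (excitation 540 nm, emission 600 nm) taken 5-6 h after adding 440 μM resazurin solution, giving IC50 values.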
For orientation: The colour change of resazurin is a common sign of viable cells or microbes.

The target in a further assay is T2, C-Raf kinase (Homo sapiens, UniProt P04049, Y340D/Y341D).
T2 construct: Y340D,; GST (N); purchased Sigma
In words: Biochemical assay for C-Raf.2 (coupled pyruvate kinase/lactate dehydrogenase). The conditions noted are these: read-out: CRAF.2 IC50. The protocol:
Biochemical Assay for C-Raf.2
Activity of C-Raf kinase (SEQ. ID NO: 3) was determined spectroscopically using a coupled pyruvate kinase/lactate dehydrogenase assay that continuously monitors the ATP hydrolysis-dependent oxidation of NADH (e.g., Schindler et al., Science, 2000, 289, 1938-1942). Assays were conducted in 384-well plates (25 μL final volume) using 3.84 nM C-Raf (Eurofins), 1.5 units pyruvate kinase, 2.1 units lactate dehydrogenase, 1 mM phosphoenol pyruvate, 0.7 mM NADH, 50 nM MEK (SignalChem), and 1 mM ATP in assay buffer (100 mM Tris, pH 7.5, 15 mM MgCl2, 0.5 mM DTT, 0.1% octyl-glucoside, 0.002% (w/v) BSA, and 0.002% Triton X-100). Inhibition of C-Raf was measured by adding serial diluted test compound (final assay concentration of 1% DMSO). A decrease in absorption at 340 nm was monitored hourly for 4 h at 30° C. on a multi-mode microplate reader (BioTek). The reaction rate was calculated using the 2 to 3 h time frame. The reaction rate at each concentration of compound was converted to percent inhibition using controls (i.e., reaction with no test compound and reaction with a known inhibitor) and IC50 values were calculated by fitting a four-parameter sigmoidal curve to the data using Prism (GraphPad software).

The subject of another assay is WM3928 cells. In words: WM3928 cell proliferation assay (2), resazurin, 384-well. The following applies: inhibition of cell proliferation, 67-72 hours. The class given is cell-based. On the procedure:
WM3928 Cell Proliferation Assay (2)
WM3928 cells (#WM3928-01-0001) are obtained from Rockland Immunochemicals Inc (Gilbertsville, PA). Briefly, cells were grown in MCDB 153 medium (Sigma, #M7403, St. Louis, MO) supplemented with 20% Leibovitz's L-15 (ThermoFisher #11415-064, Waltham, MA), 2% heat inactivated fetal bovine serum (ThermoFisher, #A3840001, Waltham, MA), 5 μg/mL Insulin (Bovine Pancreas) (Sigma, #I0516, St. Louis, MO), 1.68 mM Calcium Chloride (Sigma, #C-34006, St. Louis, MO) and 1% Penicillin/Streptomycin/L-Glutamine (ThermoFisher #10378016, Waltham, MA) at 37° C., 5% CO2, and 95% humidity. Cells are expanded until reaching 70-95% confluency at which point they are sub-cultured or harvested for assay use. Using the Beckman Coulter Echo 650, a serial dilution of test compound is dispensed into a 384-well black clear bottom plate in triplicate. Seven hundred fifty cells are added per well in 50 μL complete growth medium in the 384-well plate. Plates are incubated for 67-72 hours at 37° C., 5% CO2, and 95% humidity. At the end of the incubation, 10 μL of a 440 μM solution of resazurin (Sigma, #199303, St. Louis, MO) in PBS is added to each well of the plate and plates are incubated for an additional 3-6 hours at 37° C., 5% CO2, and 95% humidity. Plates are read on a Synergy2 or equivalent reader (Biotek, Winooski VT) using an excitation of 540 nm and an emission of 600 nm. Data is analyzed using Prism software (GraphPad, San Diego, CA) to calculate IC50 values.

T2 sequence (P04049 307-648 Y340D/Y341D): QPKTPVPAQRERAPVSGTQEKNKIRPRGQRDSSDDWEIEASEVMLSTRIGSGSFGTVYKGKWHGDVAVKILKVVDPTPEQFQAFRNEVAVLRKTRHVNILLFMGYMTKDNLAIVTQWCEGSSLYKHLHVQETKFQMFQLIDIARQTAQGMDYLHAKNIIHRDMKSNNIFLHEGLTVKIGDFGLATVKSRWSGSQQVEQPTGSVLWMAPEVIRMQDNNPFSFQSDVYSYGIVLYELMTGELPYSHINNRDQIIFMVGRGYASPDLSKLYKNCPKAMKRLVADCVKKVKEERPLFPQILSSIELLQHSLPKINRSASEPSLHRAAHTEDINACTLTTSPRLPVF
T1 sequence (P10398 with tags, fused parts or gaps Y301D/Y302D): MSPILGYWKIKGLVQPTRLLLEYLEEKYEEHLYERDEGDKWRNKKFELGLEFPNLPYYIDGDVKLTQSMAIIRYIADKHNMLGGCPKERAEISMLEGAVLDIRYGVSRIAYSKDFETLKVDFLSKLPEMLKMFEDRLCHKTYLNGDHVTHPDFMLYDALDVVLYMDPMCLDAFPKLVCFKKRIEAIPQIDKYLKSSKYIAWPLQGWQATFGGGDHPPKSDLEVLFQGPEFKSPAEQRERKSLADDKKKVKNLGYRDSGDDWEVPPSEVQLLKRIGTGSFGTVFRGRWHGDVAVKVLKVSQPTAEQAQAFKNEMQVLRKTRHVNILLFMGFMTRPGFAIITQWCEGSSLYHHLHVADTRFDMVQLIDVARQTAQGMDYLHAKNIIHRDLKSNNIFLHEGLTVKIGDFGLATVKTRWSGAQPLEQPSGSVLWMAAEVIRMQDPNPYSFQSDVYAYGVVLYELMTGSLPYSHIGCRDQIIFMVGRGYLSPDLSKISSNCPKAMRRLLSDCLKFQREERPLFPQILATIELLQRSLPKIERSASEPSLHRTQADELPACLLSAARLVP

By IC50 is commonly meant the concentration that gives 50% inhibition. For `Cc1cc(F)c(NC(=O)NCC[C@@H]2CCO2)cc1-c1cc(OCCO)nc(-c2ccnc3[nH]ncc23)c1` [Example 89], the concentration for half-maximal inhibition (IC50) on A-Raf kinase was over 1 µM; in the assay on H2405 cells, 1 to 10 µM.

Regarding `Cc1cc(F)c(NC(=O)N2CCC(C)(C#N)CC2)cc1-c1cc(OCCO)nc(-c2ccnc3[nH]ncc23)c1` [Example 92], the figures for the IC50 at A-Raf kinase and with H2405 cells were over 1 µM and 1 to 10 µM, respectively.

In the case of `COC(=O)Nc1cc(-c2cncc(-c3cc(NC(=O)N4CC[C@H](C(F)(F)F)C4)ccc3C)c2)ncn1` [Example 224], the 50% inhibitory concentration (IC50) on C-Raf kinase was at most 0.1 µM; with H2405 cells it was 0.1 to 0.5 µM.

As for `COC(C)(C)CCNC(=O)Nc1cc(-c2cc(OCCO)nc(-c3ccnc4[nH]ccc34)c2)c(C)cc1F` [Example 90], the 50% inhibitory concentration (IC50) at A-Raf kinase was over 1 µM; in the assay on H2405 cells it was 0.5 to 1 µM.

Consider `CNC(=O)c1cc(-c2cncc(-c3cc(NC(=O)N4CC[C@H](C(C)C)C4)ccc3C)c2)ncn1` [Example 226], for which the half-maximal inhibitory concentration (IC50) on C-Raf kinase is 0.1 to 0.5 µM; in the assay on WM3928 cells, 0.1 to 0.5 µM; in the assay on H2405 cells, 0.5 to 1 µM.

In the case of `Cc1ccc(NC(=O)N2CC[C@H](C)C2)cc1-c1cncc(-c2cc(NC(=O)C3CC3)ncn2)c1` [Example 227], the IC50 on C-Raf kinase is at most 0.1 µM; in the assay on WM3928 cells, 0.1 to 0.5 µM.

On to `CNC(=O)c1cc(-c2cncc(-c3cc(NC(=O)N4CC[C@H](C(F)(F)F)C4)ccc3C)c2)ncn1` [Example 220], for which the IC50 at C-Raf kinase was 0.1 to 0.5 µM; with WM3928 cells, 0.5 to 1 µM; with H2405 cells it was 0.5 to 1 µM.

For `CNC(=O)c1cc(-c2cc(-c3cc(NC(=O)N4CC[C@H](C(C)C)C4)ccc3C)ccn2)ccn1` [Example 225], the IC50 at C-Raf kinase, with WM3928 cells and with H2405 cells was 0.1 to 0.5 µM in each case.

As for `Cc1cc(F)c(NC(=O)N[C@@H]2CC[C@H](F)C2)cc1-c1cc(OCCO)nc(-c2ccnc3[nH]ncc23)c1` [Example 88], the IC50 was over 1 µM at A-Raf kinase and 1 to 10 µM in the assay on H2405 cells.

Turning to `CNC(=O)c1cc(-c2cc(-c3cc(NC(=O)N4CC[C@H](C(F)(F)F)C4)ccc3C)ccn2)ccn1` [Example 215], the IC50 at C-Raf kinase is at most 0.1 µM.

With `CNC(=O)c1cc(-c2cncc(-c3cc(NC(=O)N4CC[C@H](C(C)C)C4)ccc3C)c2)ccn1` [Example 229], the 50% inhibitory concentration (IC50) on C-Raf kinase was at most 0.1 µM; with WM3928 cells, 0.1 to 0.5 µM.

Consider `CNC(=O)c1cc(-c2cncc(-c3cc(NC(=O)N4CC[C@H](C(F)(F)F)C4)ccc3C)c2)ccn1` [Example 228], for which the IC50 at C-Raf kinase and with WM3928 cells was 0.1 to 0.5 µM in each case.

Consider `COC(C)(C)CCNC(=O)Nc1cc(-c2cc(OCCO)nc(-c3ccnc4[nH]ncc34)c2)c(C)cc1F` [Example 91], for which the results for the IC50 on A-Raf kinase and in the assay with H2405 cells were over 1 µM and 0.1 to 0.5 µM, respectively.

With `Cc1cc(F)c(NC(=O)NCCC2(C)CC2)cc1-c1cc(OCCO)nc(-c2ccnc3[nH]ncc23)c1` [Example 87], the values for the IC50 at A-Raf kinase and in the assay on H2405 cells were 0.5 to 1 µM and 0.1 to 0.5 µM, respectively.

Turning to `COC(=O)Nc1cc(-c2cccc(-c3cc(NC(=O)NCCC(C)(C)OC)c(F)cc3C)c2)ccn1` [Example 85], the values for the IC50 on A-Raf kinase and in the assay on H2405 cells were over 1 µM and 0.1 to 0.5 µM, respectively.
